From patent publication US12012390B2, “Flavone compounds for the treatment and prophylaxis of hepatitis B virus disease” (priority 2018, dated 2024) come the findings set out here.

Test [1] deals with HBeAg level (surrogate marker for cccDNA) in HepDES19 cells. As to the kind of experiment: Engineered HepDES19 primary screen assay (HBeAg as surrogate marker for cccDNA). It is filed as cell-based, HBV. An excerpt: The assay was employed to screen for novel cccDNA inhibitors. HepDES19 is a cccDNA-producing cell line. In this cell line, HBeAg in the cell culture supernatant as surrogate marker, as HBeAg production depends on cccDNA level and activity. HepDES19 is an engineered cell line which contains a 1.1 unit length HBV genome, and pgRNA transcription from the transgene is controlled by Tetracycline (Tet). In the absence of Tet, pgRNA transcription will be induced, but HBV e antigen (HBeAg) could not be produced from this pgRNA due to very short leader sequence before the HBeAg start codon and the start codon is disrupted. Only after cccDNA is formed, the missing leader sequence and start codon mutation would be restored from the 3′-terminal redundancy of pgRNA, and then HBeAg could be synthesized. Therefore, HBeAg could be used as a surrogate marker for cccDNA (Zhou, T. et al., Antiviral Res. (2006), 72(2), 116-124; Guo, H. et al., J. Virol. (2007), 81(22), 12472-12484).
HepDES19 cells were seeded at 2×10^6 cells per T150 flask and cultured with the culture medium (Dulbecco's Modified Eagle Medium: Nutrient Mixture F-12 [DMEM-F12, Gibco Cat. 11320-82], 10% Fetal Bovine Serum [FBS, Clontech Cat. 631101], 0.1 mM Non-Essential Amino Acids Solution [NEAA, Gibco Cat. 11140-050], 50 μg/mL Penicillin-Streptomycin [PS, Invitrogen Cat. 15140-163], 500 μg/mL Geneticin [G418, Invitrogen Cat. 10131-027]) containing 3 μg/mL Tet (Sigma, Cat. 87128) for 5 days. Cells were then seeded at 4×10^6 cells per T150 in the same culture medium as described above in the absence of Tet for 8 days. Cells were then harvested and frozen at density of 2×10^6 cells per mL. For compound testing, the frozen cells were thawed and seeded into 96-well plates at a density of 6×10^4 cells per well. At 24 hrs after seeding, half log serial dilutions of compounds made with Dimethyl sulfoxide (DMSO, Sigma, Cat. D2650) were further diluted with the same culture medium as described above before they were added to the cells to reach desired final compound concentrations and 1% DMSO concentration. Plates were then incubated at 37° C. for another 5 days before measurement of HBeAg level and cell viability. Intracellular HBeAg level were measured with enzyme-linked immunosorbent assay (ELISA) kit (Shanghai Kehua Diagnostic Medical Products Co., Ltd). Cell viability was assessed using Cell Counting Kit-8 (Donjindo, Cat. CK04-20). IC50 values were derived from the dose-response curve using 4 parameter logistic curve fit method.
The compounds of the present invention were tested for their capacity to inhibit extracellular HBeAg level as described herein.

The subject of test [2] is HBV in primary human hepatocytes (PHH). In words: Cryopreserved primary human hepatocytes (PHH) HBV infection assay. It is filed as cell-based. To be noted: HBV-infected cryopreserved PHH, 9 days post-compound treatment. The method, then: This assay is used to confirm the anti-HBV effect of the compounds in HBV PHH infection assay. Cryopreserved PHH (BioreclamationIVT, Lot YJM) was thawed at 37° C. and gently transferred into pre-warmed InVitroGRO HT medium (BioreclamationIVT, Cat. S03317). The mixture was centrifuged at 70 relative centrifugal force (RCF) for 3 minutes at RT, and the supernatant was discarded. Pre-warmed InVitroGRO CP medium (BioreclamationIVT, Cat #S03316) was added to the cell pellet to gently re-suspend cells. The cells were seeded at the density of 5.8×10^4 cells per well to collagen I coated 96-well plate (Gibco, Cat. A1142803) with the InVitroGRO CP medium. All plates were incubated at 37° C. with 5% CO2 and 85% humidity.
At 20 hours after plating, the medium was changed to PHH culture medium (Dulbecco's Modified Eagle Medium (DMEM)/F12 (1:1) (Gibco, Cat. 11320-033), 10% fetal bovine serum (Gibco Cat. 10099141), 100 U/mL penicillin, 100 μg/mL streptomycin (Gibco, Cat. 151401-122), 5 ng/mL human epidermal growth factor (Invitrogen Cat. PHG0311L), 20 ng/mL dexamethasone (Sigma, Cat. D4902) and 250 ng/mL human recombinant insulin (Gibco, Cat. 12585-014)). And the cells were incubated at 37° C. with 5% CO2 and 85% humidity for 4 hours. The medium was then changed to pre-warmed PHH culture medium containing 4% polyethylene glycol (PEG) MW8000 (Sigma, Cat. P1458-50ML) and 1% DMSO (Sigma, Cat. D2650). 5.8×10^6 genomic equivalents of HBV were added into the medium.
At 24 hours post-infection, the cells were gently washed with PBS and refreshed with PHH culture medium supplemented with 1% DMSO, and 0.25 mg/mL Matrix gel (Corning, Cat. 356237) at 200 μL per well. All plates were immediately placed in at 37° C. CO2 incubator.
24 hours later, serial dilutions of compounds made with DMSO were further diluted with the same culture medium (PHH culture medium supplemented with 1% DMSO and 0.25 mg/mL Matrix gel as described above) before they were added to the cells to reach desired final compound concentrations and 1% DMSO concentration. The medium containing the compounds were refreshed every three days.
At 9 days post-compound treatment, extracellular HBsAg level were measured with Chemiluminescence Immuno Assay (CLIA) kit (Autobio, HBsAg Quantitative CLIA). Extracellular HBV DNA was extracted by MagNA Pure 96 system (Roche) and then determined by quantitative PCR with the following primers and probe: […]
HBsAg IC50 and HBV DNA IC50 values were derived from the dose-response curve using 4 parameter logistic curve fit method. The compounds of formula (I) have HBsAg IC50<20 μM, particularly <1 μM; and HBV DNA IC50<50 μM. Test results of the compounds of this invention as well as the reference compounds in Cryopreserved PHH assay are given in Table 2 and Table 3.

Where [3] appears, read: Hepatitis B virus, HepDES19, 120 h, read-out: IC50 (HBeAg) in HepDES19 primary screen assay, HepDES19 cells, 5 days incubation with compound, HBeAg by ELISA.
The mark [4] stands for this setting: Hepatitis B virus, Hepatocyte, 216 h, extracellular HBsAg by CLIA, read-out: HBsAg IC50.
[5] abbreviates: read-out: IC50 (HBeAg) in HepDES19 primary screen assay, HepDES19 cells, 5 days incubation with compound, HBeAg by ELISA.
Setting [6] is: extracellular HBsAg by CLIA, read-out: HBsAg IC50.

Where two headings read alike, the source gives them in different places.

By IC50 is commonly meant the concentration at which inhibition is half-maximal.

For the compound `COc1cc(OCCOC2CC(C(=O)O)C2)ccc1-c1cc(=O)c2cccc(Cl)c2o1` (stereo not shown) [Example 50, 3-[2-[4-(8-chloro-4-oxo-chromen-2-yl)-3-methoxy-phenoxy]ethoxy]cyclobutanecarboxylic acid], the values for the IC50 in test [1] (setting [3]) and in test [2] (setting [4]) were 1780 nM and 10200 nM, respectively.
Consider `N#Cc1ccc2c(=O)cc(-c3ccc(OCCOC4CC(C(=O)O)C4)cc3)oc2c1Cl` (single isomer, unassigned) [Example 23-B, 3-[2-[4-(8-chloro-7-cyano-4-oxo-chromen-2-yl)phenoxy]ethoxy]cyclobutanecarboxylic acid], for which the IC50 in test [2] (setting [4]) came to 6890 nM.
Consider `O=c1cc(-c2ccc(OCCO[C@H]3C[C@H](C(=O)O)C3)cc2)oc2c(Cl)cccc12` [Example 1-B, trans-3-[2-[4-(8-chloro-4-oxo-chromen-2-yl)phenoxy]ethoxy]cyclobutanecarboxylic acid], for which the IC50 turned out to be 140 nM in test [1] (setting [3]) and 80 nM in test [2] (setting [4]).
For `CCOc1cc(OCCOC2CC(C(=O)O)C2)ccc1-c1cc(=O)c2cccc(Cl)c2o1` (stereo not shown) [Example 51, 3-[2-[4-(8-chloro-4-oxo-chromen-2-yl)-3-ethoxy-phenoxy]ethoxy]cyclobutanecarboxylic acid], the results for the half-inhibitory concentration (IC50) in test [1] (setting [3]) and in test [2] (setting [4]) were 860 nM and 940 nM, respectively.
On the same counts, the results for `CC(C)(COCCOc1ccc(-c2cc(=O)c3cccc(Cl)c3o2)cc1)C(=O)O` [Example 11, 3-[2-[4-(8-chloro-4-oxo-chromen-2-yl)phenoxy]ethoxy]-2,2-dimethyl-propanoic acid] are 570 nM and 12500 nM.
Turning to `CCOC(=O)C1CC1OCCOc1ccc(-c2cc(=O)c3cccc(Cl)c3o2)cc1` (single isomer, unassigned) [Example 4-B, ethyl 2-[2-[4-(8-chloro-4-oxo-chromen-2-yl)phenoxy]ethoxy]cyclopropanecarboxylate], the 50% inhibitory concentration (IC50) in test [1] (setting [5]) was determined as 5230 nM; in test [2] (setting [6]), 510 nM.
For `N#Cc1ccc2c(=O)cc(-c3ccc(OCCOC4CC(C(=O)O)C4)cc3)oc2c1Cl` (stereo not shown) [Example 23, 3-[2-[4-(8-chloro-7-cyano-4-oxo-chromen-2-yl)phenoxy]ethoxy]cyclobutanecarboxylic acid], the IC50 in test [1] (setting [3]) is 21100 nM; in test [2] (setting [4]) it was 7110 nM.
For `O=C(O)c1cccc(OCCOc2ccc(-c3cc(=O)c4cccc(Cl)c4o3)cc2)c1` [Example 3, 3-[2-[4-(8-chloro-4-oxo-chromen-2-yl)phenoxy]ethoxy]benzoic acid], the IC50 in test [1] (setting [3]) is 150 nM; in test [2] (Hepatitis B virus, Hepatocyte, 216 h, extracellular HBV DNA by quantitative PCR, read-out: HBV DNA IC50), 35700 nM; in test [2] (setting [4]), 12500 nM.
As for `O=C(O)COCCOc1ccc(-c2cc(=O)c3cccc(Cl)c3s2)cc1` [Example 58, 2-[2-[4-(8-chloro-4-oxo-thiochromen-2-yl)phenoxy]ethoxy]acetic acid], the half-inhibitory concentration (IC50) was 520 nM in test [1] (setting [3]) and 570 nM in test [2] (setting [4]).
With `O=C(O)C1CCC(OCCOc2ccc(-c3cc(=O)c4cccc(Cl)c4o3)cc2)C1` (stereo not shown) [Example 6, 3-[2-[4-(8-chloro-4-oxo-chromen-2-yl)phenoxy]ethoxy]cyclopentanecarboxylic acid], the IC50 in test [1] (setting [3]) worked out at 1950 nM; in test [2] (setting [4]) it was 860 nM.
For the compound `O=C(O)[C@H]1C[C@H]1OCCOc1ccc(-c2cc(=O)c3cccc(Cl)c3o2)cc1` (single isomer, unassigned) [Example 5-B, 2-[2-[4-(8-chloro-4-oxo-chromen-2-yl)phenoxy]ethoxy]cyclopropanecarboxylic acid], the values for the concentration for half-maximal inhibition (IC50) in test [1] (setting [5]) and in test [2] (setting [4]) were 11200 nM and 1780 nM, respectively.
In the case of `O=c1cc(-c2ccc(OCCO[C@H]3C[C@@H](C(=O)O)C3)cc2)oc2c(Cl)ccc(C3CC3)c12` [Example 30, Cis-3-[2-[4-(8-chloro-5-cyclopropyl-4-oxo-chromen-2-yl)phenoxy]ethoxy]cyclobutanecarboxylic acid], the 50% inhibitory concentration (IC50) in test [1] (setting [3]) worked out at 130 nM; in test [2] (setting [4]) it was 7290 nM.
Regarding `CCOC(=O)C1CC1OCCOc1ccc(-c2cc(=O)c3cccc(Cl)c3o2)cc1` (single isomer, unassigned) [Example 4-A, ethyl 2-[2-[4-(8-chloro-4-oxo-chromen-2-yl)phenoxy]ethoxy]cyclopropanecarboxylate], the values for the IC50 in test [1] (setting [5]) and in test [2] (setting [6]) were 530 nM and 6340 nM, respectively.
For the compound `O=C(O)C1CC(OCCOc2ccc(-c3cc(=O)c4ccc(F)c(Cl)c4o3)cc2)C1` (stereo not shown) [Example 15, 3-[2-[4-(8-chloro-7-fluoro-4-oxo-chromen-2-yl)phenoxy]ethoxy]cyclobutanecarboxylic acid], the half-inhibitory concentration (IC50) in test [1] (setting [3]) came out at 10300 nM; in test [2] (setting [4]), 280 nM.
As for `O=c1cc(-c2ccc(OCCO[C@H]3C[C@@H](C(=O)O)C3)c(F)c2)oc2c(Cl)cccc12` [Example 42, Cis-3-[2-[4-(8-chloro-4-oxo-chromen-2-yl)-2-fluoro-phenoxy]ethoxy]cyclobutanecarboxylic acid], the IC50 worked out at 610 nM in test [1] (setting [3]) and 580 nM in test [2] (setting [4]).
With `O=c1cc(-c2ccc(OCCO[C@H]3C[C@@H](C(=O)O)C3)cc2)oc2c(Cl)cccc12` [Example 1-A, cis-3-[2-[4-(8-chloro-4-oxo-chromen-2-yl)phenoxy]ethoxy]cyclobutanecarboxylic acid], the IC50 was 140 nM in test [1] (setting [3]) and 720 nM in test [2] (setting [4]).
On to `Cc1cc(-c2cc(=O)c3ccc(C(F)(F)F)c(Cl)c3o2)ccc1OCCOC1CC(C(=O)O)C1` (stereo not shown) [Example 72, 3-[2-[4-[8-chloro-4-oxo-7-(trifluoromethyl)chromen-2-yl]-2-methyl-phenoxy]ethoxy]cyclobutanecarboxylic acid], for which the half-inhibitory concentration (IC50) in test [1] (setting [3]) came to 14400 nM; in test [2] (setting [4]) it was 7410 nM.
